Measurements taken from PMC9750872, “Ras-mutant cancers are sensitive to small molecule inhibition of V-type ATPases in mice” (Nature biotechnology, 2022).
pIC50: −log10 of the molar value.

Experiments:
A549 (KRASG12S) = assay: Cell viability screen, CellTiter-Glo, 72 h; type: cell-based; settings: Homo sapiens, ATP content/viability
Description: (§1) Figure 1: Optimization of Potency and Drug Properties of Small Molecule Inhibitors of Ras- and Raf-mutant Cells using Viability Screens. (A) Cell viability screen of ~300 small molecules in A549 (KRASG12S), LOX IMVI (BRAFV600E), and MelJuso (HRASG13D and NRASQ61L). Cells were treated with vehicle DMSO or increasing concentrations of small molecules in triplicate for 72 h and ATP content/viability was measured using CellTiter-Glo Luminescent Cell Viability Assay. The results shown for all cell viability figures are representative of at least two independent experiments. […] (C) Evolution of the Structure Activity Relationship (SAR) and IC50s of the first (68) and last (249C | lead due to drug-like properties) compounds in the screen. (D) 249C sensitivity for a panel of 53 cancer cell lines (including lung, pancreatic, breast, ovarian, hematological/liver, prostate, colorectal cancers, glioma and melanoma). […] (F) Quantitative whole proteome analysis of the effects of small molecule treatment by mass spectrometry. A549 cells were treated with DMSO or 68 (30 μM), 226C (1μM) or 249C (1μM) for 48 h prior to analysis of proteomes with TMT labeling followed by quantification relative to the DMSO control. […]

LOX IMVI (BRAFV600E) = assay: Cell viability screen, CellTiter-Glo, 72 h; type: cell-based; settings: Homo sapiens, ATP content/viability
Description: as §1

[1] = test system: MelJuso (HRASG13D and NRASQ61L); assay: Cell viability screen, CellTiter-Glo, 72 h; type: cell-based, human; settings: ATP content/viability
Description: as §1

human primary cells = assay: BioMAP Safety and Toxicology screening profile; type: cell-based; settings: over 100 biomarker readouts
Description: The BioMAP Toxicity Screening Profile was performed as described previously.

[2] = test system: SW48 KRASG12D/+ xenografts; assay: SW48 isogenic colon xenograft; type: in vivo, mouse; settings: 10 mg/kg i.p., 14 days of treatment
Source text: (§2) To explore the relationship between individual KRAS mutants and 249C sensitivity in vivo, we used a colon cancer (SW48) xenograft model with a set of colon cancer cell lines which differ in KRAS mutation status but are otherwise genetically matched. Stable derivatives of the SW48 cell line were derived by introducing a KRASG12D, KRASG12V or KRASG13D point mutation via rrAV gene editing technology previously reported. To compare KRAS mutants in a cancer-relevant system, four cell lines: (SW48, SW48 KRASG12D/+, SW48 KRASG12V/+ and SW48 KRASG13D/+) were injected into athymic mice and 14 days of treatment (10 mg/kg 249C or vehicle control, i.p., n = 5 for all arms) was started when the average tumor volume reached approximately 100–200 mm^3 following random segregation into groups. As before, KRASG13D tumors were most sensitive to 249C both in vitro and in vivo (Fig. 6d–e). […] Changes in tumor volume are presented for animals bearing isogenic SW48 cells: parental/KRASWT (Fig. 6f), KRASG12D/+ (Fig. 6g), KRASG12V/+, (Fig. 6h), KRASG13D/+ (Fig. 6i). Note that SW48 tumors with different KRAS variants show different basal growth rates, as reported previously. […] Further, no significant changes in body weight of the mice were observed during the study (Fig. 6j).
(§3) For cell line xenografts, 6 × 10^6 SW48 cells were subcutaneously injected into the flanks of 6–8-week old athymic nude female mice (Taconic model # NCRNU-F, CrTac:NCR-Foxn1 sp/sp) and tumor growth was monitored with caliper measurement. Once the mean tumor reached a certain volume (between 100–200 mm^3), animals were randomized into different treatment groups of 5 animals per group. 249C for in vivo use was formulated in 0.5% Methylcellulose and dosed i.p. (10 mg/kg, for 2 weeks). Antitumor activity was determined by calculating the treatment over control (T/C) tumor volume ratio at the end of the study. Either at the end of each study, of if any animal reached a humane endpoint, animals were euthanized with CO2 followed by cervical dislocation or another secondary method of euthanasia approved by the IACUC protocol. Mouse manipulations were performed in accordance with UCSF’s IACUC protocol AN179973.Mice were housed in the UCSF Animal Care Facility LARC at the Helen Diller Family Cancer Center at UCSF Mission Bay. Mice were housed in a specific-pathogen free individual suite. They are housed up to 5 per cage in ventilator cages, with ad libitum food and water on a 12-hour light cycle and controlled temperature and humidity conditions (67–74°F and 30–70%).

[3] = test system: SW48 KRASG12V/+ xenografts; assay: SW48 isogenic colon xenograft; type: in vivo, mouse; settings: 10 mg/kg i.p., 14 days of treatment
Source text: as §2, §3

[4] = test system: SW48 KRASG13D/+ xenografts; assay: SW48 isogenic colon xenograft; type: in vivo, mouse; settings: 10 mg/kg i.p., 14 days of treatment
Source text: as §2, §3

[5] = test system: SW48 parental (KRAS WT) xenografts; assay: SW48 isogenic colon xenograft; type: in vivo, mouse; settings: 10 mg/kg i.p., 14 days of treatment
Source text: as §2, §3

MEFs KRASWT = assay: Cell proliferation of Ras-less MEFs expressing human KRAS/BRAF; settings: Mus musculus
Description: (§4) Cell proliferation assays of stable cell lines treated with V-ATPase inhibitors 249C and BafA1, HCQ analog (DC661), KRASG12C inhibitor (AMG510) and autophagy inducer (CMA). For each bar, n = 3. Representative of 3 biological replicates (mean ± SD). Two-sided t-test with no adjustments for multiple comparisons.
(§5) Logarithmically growing cells were plated in antibiotic-free medium supplemented with 2% fetal bovine serum at a density of 5,000 cells per well. The next day, cells were treated in triplicates with increasing doses of in-house small molecule inhibitor drugs and a DMSO vehicle control for 3 days and subsequently assessed for cell viability by measurement of ATP with CellTiter-Glo Luminescent Cell Viability Assay (Promega). Signal intensity was read on a Glomax™ 96 Microplate Luminometer (Promega) with GLOMAX software (version 1.9.3) and percent cell survival was calculated based on the reading of vehicle control cells set as 100% using Excel (2012) and GraphPad Prism (version 6)Each compound was tested a minimum of 2 times with n = 3. All cell proliferation assays (cancer cell lines or MEFs) were done in a similar way.

MEFs KRAS G12S = assay: as above; settings: Mus musculus
Description: as §5

MEFs BRAFV600E = assay: as above; settings: Mus musculus
Description: as §4, §5

SMILES: CN1CCOC(CNC(=O)C2(C)C(c3ccc(Cl)o3)C(c3ccc(F)cc3F)=NN2c2ccc(F)cc2F)C1 (stereo not drawn) [Compound 249C]
- pIC50 (A549 (KRASG12S)): 7.14
- pIC50 (LOX IMVI (BRAFV600E)): 7.22
- pIC50 ([1]; listed as 002-249C): 7.66
- pIC50 ([1]; Homo sapiens, MEL-JUSO): 7.66
- toxicity categories / adverse events in BioMAP safety profiling (human primary cells): no adverse events
- Treatment/Control on Day 21 [2]: 75%
- Tumor Growth Inhibition (TGI) on Day 21 [2]: 25%
- Treatment/Control on Day 21 [3]: 55%
- Tumor Growth Inhibition (TGI) on Day 21 [3]: 45%
- Treatment/Control on Day 21 [4]: 18%
- Tumor Growth Inhibition (TGI) on Day 21 [4]: 82%
- Tumor Growth Inhibition (TGI) on Day 21 [5]: 0%
- pIC50 (MEFs KRASWT): 5.90
- pIC50 (MEFs KRAS G12S): 6.64
- pIC50 (MEFs BRAFV600E): 6.96
